Results reported in patent US20090215783A1, “COMPOSITION FOR INDUCTION OR INHIBITION OF STEM CELL DIFFERENTIATION” (CHOONGWAE PHARMA CORPORATION, priority 2006, published 2009).

Tests used:
[1] = tested on: human bone marrow derived-mesenchymal stem cells (hBMMSC); test: Osteogenesis modulating activity assay by test compound alone (ALP activity); assay type: cell-based; conditions: Homo sapiens, 168 h; hBMMSC, 20 μM test compound alone, six to seven days; read-out: Osteogenesis: fold change of ALP activity compared with DMSO control
Method: Cell culture: Human bone marrow derived-mesenchymal stem cells (hBMMSC) were isolated from normal subjects.
Osteogenesis modulating activity assay by test compound alone: hBMMSC were cultivated in the culture medium and cells were seeded into 96-well culture plates and test compounds were dissolved in DMSO and diluted with culture media (final 0.01% DMSO) and added into the media (final concentration of test compound was 20 μM) and cultured in the CO2 incubator (37° C., 5% CO2). Culture medium was changed every two days with fresh one and compound was treated again whenever medium was changed. Six to seven days after incubation, Alkaline phosphatase activity of cell lysates was measured by colorimetry. For the determination of mineralization within the cells, Von Kossa staining or Alizarin Red S assay was performed 10-14 days after incubation.

[2] = tested on: Mouse embryonic stem (ES) cells, TC1; test: Cardiomyogenesis modulating activity assay (alpha-MHC promoter EGFP, embryoid bodies, FACS/fluorescence microscopy); assay type: cell-based; conditions: embryoid bodies treated for 5 days, FACS
Method: a. Cell culture: Mouse embryonic stem (ES) cells, TC1 derived from 129/S6 strain were cultured on irradiated feeder layer in the culture medium which is high-glucose DMEM (Gibco) BRL, Germany) supplemented with 15% FBS (Hyclone), 0.1 mM beta-mercaptoethanol, […] sodium pyruvate, 1 mM L-glutamine and 1× non-essential amino acids.
b. Establishment of alpha-MHC stably transformed ES cell line: A construct (FIG. 8) containing 1.8 kb promoter sequence of the mouse alpha-MHC gene between EcoRI and SalI sites of pEGFP-1 (Clontech Laboratories, Inc, CA, USA) was linearized at XhoI site, and was introduced into mouse ES cells, TC1, using the Gene Pulser II (BioRad, MA). A selection medium containing G418 was applied for two weeks from 24 hours after electroporation. The selected ES cell clones were harvested and expanded on the feeder cell layer. The green fluorescence-expressing clones when differentiated into cardiomyocytes were used in this experiment.
c. Cardiomyogenesis modulating activity assay: Embryoid body (EB) was formed by hanging drop culture using about a number of 600 (six hundred) ES cells for two days and it was further expanded by culturing in suspension condition on a Petri-dish for another two days. Then each EB was plated on a well of 96 well culture plates. Test compounds were dissolved in DMSO and diluted with culture media (final 0.05% DMSO) and EB was treated with test compound for 5 days. Culture medium was changed every three days after plating. Expression level of EGFP was measured with FACS (Beckman). For FACS analysis, differentiating cells were dissociated with trypsin. For the determination of the extent of differentiation, EB was observed and photographed with an inverted fluorescence microscope (Zeiss, Germany). Number of beating EBs was counted under the microscope and recorded once daily.

| Compound | fold induction at 20 µM [1] | Cardiomyogenesis: fold change of EGFP expression level compared with DMSO control [2] [fold] |
| --- | --- | --- |
| C=CCN1CC(=O)N2C(CC(=O)O)C(=O)N(CCc3ccccc3)C[C@@H]2N1C(=O)NCc1ccccc1 (stereo partly drawn) [#88] | 0.64 | 1.34 |
| O=C1[C@H](CC2CCCCC2)N2C(=O)CN(Cc3ccc(F)cc3)N(C(=O)NCc3ccccc3)[C@H]2CN1Cc1cccc(C(F)(F)F)c1 [#69] | 0.71 | 1.69 |
| CN1CC(=O)N2C(Cc3ccc(Oc4ccccc4)cc3)C(=O)N(Cc3cccc4ccccc34)CC2N1C(=O)NCc1ccccc1 (stereo not drawn) [#1] | 0.36 | 1.21 |
| CN1CC(=O)N2[C@@H](CC3CCCCC3)C(=O)N(CCc3ccccc3)C[C@@H]2N1C(=O)NCc1ccccc1 [#37] | 0.95 | 0.98 |
| COc1ccc(CN2CC3N(C(=O)CN(C)N3C(=O)NCc3ccccc3)C(Cc3ccc(O)cc3)C2=O)cc1 (stereo not drawn) [#19] | 0.7 | 3.03 |
| CCCCNC(=O)N1[C@H]2CN(CCCCc3ccccc3)C(=O)[C@H](C(C)CC)N2C(=O)CN1Cc1cccc(F)c1 (stereo partly drawn) [#41] | 0.6 | 2.15 |
| CCCN1CC(=O)N2C(Cc3ccc(O)cc3)C(=O)N(CCC(C)C)CC2N1C(=O)NCc1ccccc1 (stereo not drawn) [#92] | 0.7 | 2.13 |
| O=C1[C@H](Cc2ccc(F)c(F)c2)N2C(=O)CN(Cc3ccccc3)N(C(=O)NCc3ccccc3)C2CN1CCc1ccc(Cl)cc1 (stereo partly drawn) [#81] | 1.84 | 0.81 |
| CC(C)CN1C[C@H]2N(C(=O)CN(C)N2C(=O)NCc2ccccc2)[C@@H](c2ccccc2)C1=O [#18] | 0.93 | 2.01 |
| CN1CC(=O)N2[C@@H](Cc3ccc(Cl)cc3)C(=O)N(CCc3ccccc3)C[C@@H]2N1C(=O)NCc1ccccc1 [#39] | 0.79 | 0.29 |
| C=CCN1CC(=O)N2C(Cc3ccc(O)cc3)C(=O)N(Cc3ccc(F)cc3F)C[C@H]2N1C(=O)NCc1ccccc1 (stereo partly drawn) [#13] | 0.47 | 1.02 |
| CCCCOCCCN1C[C@H]2N(C(=O)N(C)N2C(=O)NCc2ccccc2)[C@@H](CCSC)C1=O [#107] | 0.66 | 0.59 |
| CC(C)C[C@H]1C(=O)N(CC(=O)N(c2ccccc2)c2cccc(Cl)c2)C[C@H]2N1C(=O)CN(C)N2C(=O)NCc1ccccc1 [#4] | 0.59 | 0.40 |
| O=C1[C@H](CCc2ccccc2)N2C(=O)CN(Cc3ccccc3)N(C(=O)NCc3ccccc3)[C@H]2CN1CCc1ccc(Cl)cc1 [#75] | 1.16 | 0.50 |
| CCCCNC(=O)N1[C@H]2CN(CCc3ccc(OC)cc3)C(=O)[C@H](CC(C)C)N2C(=O)CN1Cc1ccc(C)cc1 [#97] | 0.54 | 0.71 |
| CN1CC(=O)N2[C@@H](Cc3ccc(F)cc3)C(=O)N(CCc3ccccc3)C[C@@H]2N1C(=O)NCc1ccccc1 [#38] | 0.48 | 0.69 |
| CCC(C)[C@H]1C(=O)N(Cc2ccc(OC)cc2)C[C@H]2N1C(=O)CN(C)N2C(=O)NCc1ccccc1 (stereo partly drawn) [#23] | 0.86 | 1.69 |
| CCCCNC(=O)N1[C@H]2CN(CCCCc3ccccc3)C(=O)[C@H](Cc3ccc(O)cc3)N2C(=O)CN1Cc1cccc(F)c1 [#40] | 0.69 | 1.11 |
| CN1CC(=O)N2[C@@H](CC3CCCCC3)C(=O)N(CCCc3ccccc3)C[C@@H]2N1C(=O)NCc1ccccc1 [#28] | 0.26 | 1.23 |
| O=C1[C@H](CC2CCCCC2)N2C(=O)CN(Cc3ccccc3)N(C(=O)NCc3ccccc3)[C@H]2CN1CCc1ccc(Cl)cc1 [#79] | 0.58 | 1.67 |

| Compound | fold induction at 20 µM [1] | Cardiomyogenesis: fold change of EGFP expression level compared with DMSO control [2] [fold] |
| --- | --- | --- |
| CC(C)C[C@H]1C(=O)N(CC(=O)N(Cc2ccccc2)c2ccccc2)CC2N1C(=O)CN(C)N2C(=O)NCc1ccccc1 (stereo partly drawn) [#2] | 1.09 | 1.11 |
| CN1CC(=O)N2C(CN(Cc3ccc(F)cc3)C(=O)[C@@H]2Cc2ccc(O)cc2)N1C(=O)NCc1ccccc1 (stereo partly drawn) [#9] | 0.24 | 1.59 |
| COc1ccc(CN2C[C@H]3N(C(=O)CN(C)N3C(=O)NCc3ccccc3)[C@@H](C(C)C)C2=O)cc1 [#21] | 1.21 | 0.62 |
| CCCCNC(=O)N1[C@H]2CN(CCCCc3ccccc3)C(=O)[C@H](CCC(=O)O)N2C(=O)CN1Cc1cccc(F)c1 [#44] | 0.56 | 1.98 |
| C=CCN1CC(=O)N2[C@@H](Cc3ccc(OCc4ccccc4)cc3)C(=O)N(Cc3ccc(F)cc3)C[C@@H]2N1C(=O)NCc1ccccc1 [#83] | 0.36 | 2.02 |
| NC(=O)CC1C(=O)N(CCSCc2ccccc2)CC2N1C(=O)CN(Cc1ccc(F)cc1)N2C(=O)NCc1ccccc1 (stereo not drawn) [#110] | 0.63 | 1.18 |
| CN1CC(=O)N2[C@@H](Cc3ccc(Cl)cc3)C(=O)N(CCCc3ccccc3)C[C@@H]2N1C(=O)NCc1ccccc1 [#29] | 0.91 | 1.71 |
| COc1ccc(CN2C[C@H]3N(C(=O)CN(C)N3C(=O)NCc3ccccc3)[C@@H](Cc3ccccc3)C2=O)cc1 [#22] | 0.7 | 1.16 |
| CN1CC(=O)N2C(Cc3ccc(OCc4ccccc4)cc3)C(=O)N(CCCc3ccccc3)CC2N1C(=O)NCc1ccccc1 (stereo not drawn) [#27] | 0.96 | 0.52 |
| CC(C)C[C@H]1C(=O)N(CC(=O)N2c3ccccc3Oc3ccccc32)C[C@H]2N1C(=O)CN(C)N2C(=O)NCc1ccccc1 [#5] | 0.29 | 0.36 |
| O=C1[C@H](Cc2ccc(F)cc2)N2C(=O)CN(Cc3ccccc3)N(C(=O)NCc3ccccc3)[C@H]2CN1CCc1ccc(Cl)cc1 [#80] | 0.19 | 1.49 |
| CCC(C)[C@H]1C(=O)N(Cc2cccc(Cl)c2)C[C@H]2N1C(=O)N(C)N2C(=O)NCc1ccccc1 (stereo partly drawn) [#109] | 1 | 0.97 |
| CCCCN1C[C@H]2N(C(=O)CN(C)N2C(=O)NCc2ccccc2)[C@@H](Cc2ccc(Cl)cc2)C1=O [#30] | 1.12 | 1.75 |
| CC(C)CN1C[C@H]2N(C(=O)CN(C)N2C(=O)NCc2ccccc2)[C@@H](CC(=O)O)C1=O [#16] | 0.97 | 1.42 |
| CCC[C@H]1C(=O)N(Cc2ccc(OC)cc2)C[C@H]2N1C(=O)CN(C)N2C(=O)NCc1ccccc1 [#24] | 0.85 | 1.57 |
| O=C1[C@H](CCc2ccccc2)N2C(=O)CN(Cc3ccc(F)cc3)N(C(=O)NCc3ccccc3)[C@H]2CN1Cc1cccc(C(F)(F)F)c1 [#64] | 0.79 | 2.83 |
| CCC(C)[C@H]1C(=O)N(CC2CCCCC2)C[C@H]2N1C(=O)N(C)N2C(=O)NCc1ccccc1 (stereo partly drawn) [#101] | 1.28 | 2.32 |
| Cc1ccc(C[C@H]2C(=O)N(Cc3cccc(C(F)(F)F)c3)C[C@H]3N2C(=O)CN(Cc2ccc(F)cc2)N3C(=O)NCc2ccccc2)cc1 [#67] | 0.8 | 1.50 |
| CN1CC(=O)N2[C@@H](COCc3ccccc3)C(=O)N(CCc3ccccc3)C[C@@H]2N1C(=O)NCc1ccccc1 [#32] | 0.94 | 0.95 |
